From patent US10676485B2, “Macrocyclic MCL-1 inhibitors and methods of use” (AbbVie Inc., priority 2017, dated 2020)
Like-named read-outs stand apart in the source and are kept apart here.

Tests used:
GST-MCL-1 = GST-MCL-1 (Homo sapiens (Human), UniProt Q07820); assay: TR-FRET MCL-1 binding assay (competition with probe F-Bak)
Method in brief: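 Tested both in plain buffer and with 10% human serum. Top concentration 25 μM, 11 three-fold steps, 2 h room-temperature incubation of GST-MCL-1 with Tb-labelled anti-His antibody and F-Bak probe. Time-resolved FRET: 340 nm excitation, 520/525 and 495/510 nm emission.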

[1] = tested on: NCI-H929 human multiple myeloma tumor cell line; assay: NCI-H929 cell viability assay (CellTiter-Glo); type: cell-based; settings: NCI-H929, read-out: H929 Viability IC50 (μM), 10% FBS, 24 hours of compound treatment
Protocol: (§1) In one exemplary set of conditions, NCI-H929 or AMO-1 (ATCC. Manassas, Va.) were plated 4.000 cells per well in 384-well tissue culture plates (Corning. Corning, N.Y.) in a total volume of 25 μL RPMI tissue culture medium supplemented with 10% fetal bovine serum (Sigma-Aldrich, St. Louis, Mo.) and treated with a 3-fold serial dilution of the compounds of interest with a Labcyte Echo from a final concentration of 10 μM to 0.0005 μM. Each concentration was tested in duplicate at least 3 independent times. A luminescent signal proportional to the number of viable cells following 24 hours of compound treatment was determined using the CellTiter-Glo® Luminescent Cell Viability Assay according to the manufacturer's recommendations (Promega Corp., Madison, Wis.). The plates were read in a Perkin Elmer Envision using a Luminescence protocol. To generate dose response curves the data is normalized to percent viability by setting the averages of the staurosporine (10 uM) and DMSO only control wells to 0% and (00)% viability respectively. The IC50 values for the compounds are generated by fitting the normalized data with Accelrys Assay Explorer 3.3 to a sigmoidal curve model using linear regression.

[2] = tested on: AMO-1 human multiple myeloma tumor cell line; assay: AMO-1 cell viability assay (CellTiter-Glo); type: cell-based; settings: AMO1, read-out: AMO-1 Viability IC50 (μM), 10% FBS, 24 hours of compound treatment
Protocol: as §1

AMO-1 xenograft = AMO-1 xenograft model of multiple myeloma; type: in vivo; settings: Mus musculus, AMO1, 25 mg/kg/day, IP, QDx1, SCID/bg mice; for change in vivo at 25 mg/kg: read-out: TGD (%); for inhibition in vivo at 25 mg/kg: read-out: TGImax (%)
Protocol: Tumors were size matched at approximately 200 mm^3. […] Tumor volume was estimated two to three times weekly. […] Mice were euthanized when tumor volume reached 3,000 mm3 or skin ulcerations occurred. Eight mice were housed per cage. Food and water were available ad libitum.
Tumor growth inhibition is calculated by 100*(1−Tv/Cv) where Tv and Cv are the mean tumor volumes of the treated and control groups, respectively.

[3] = read-out: MCL-1 Binding Ki (nM, 10% HS), in the presence of 10% HS
[4] = without HS, read-out: MCL-1 Binding Ki

Chain of GST-MCL-1 (Q07820 whole entry): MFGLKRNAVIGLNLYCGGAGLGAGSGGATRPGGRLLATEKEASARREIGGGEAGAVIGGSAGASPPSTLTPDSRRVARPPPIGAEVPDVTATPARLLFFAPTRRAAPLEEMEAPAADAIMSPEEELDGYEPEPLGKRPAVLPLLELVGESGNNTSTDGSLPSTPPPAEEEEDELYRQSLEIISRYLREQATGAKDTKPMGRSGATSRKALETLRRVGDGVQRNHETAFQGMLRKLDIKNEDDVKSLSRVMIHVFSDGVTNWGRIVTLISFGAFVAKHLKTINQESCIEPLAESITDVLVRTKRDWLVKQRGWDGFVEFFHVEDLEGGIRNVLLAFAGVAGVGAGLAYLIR

SMILES	Ki (GST-MCL-1; [3]) [nM]	Ki (GST-MCL-1; [4]) [nM]	IC50 [1] [µM]	IC50 [2] [µM]	change in vivo at 25 mg/kg (AMO-1 xenograft) [%]	inhibition in vivo at 25 mg/kg (AMO-1 xenograft) [%]
Cc1c(Cl)c2c(Cl)c(C)c1-c1c(-c3ccc(F)cc3)sc3ncnc(c13)O[C@@H](C(=O)O)Cc1cc(ccc1OCc1ccnc(-c3ccccc3OCC3COC(C)(C)O3)n1)OC[C@@H](CN1CCN(C)CC1)O2 (stereo in doubt) [Example 3, (7R,16R)-19,23-dichloro-10-{[2-(2-{[(4R)-2,2-dimethyl-1,3-dioxolan-4-yl]methoxy}phenyl)pyrimidin-4-yl]methoxy}-1-(4-fluorophenyl)-20,22-dimethyl-16-[(4-methylpiperazin-1-yl)methyl]-7,8,15,16-tetrahydro-18,21-etheno-13,9-(metheno)-6,14,17-trioxa-2-thia-3,5-diazacyclononadeca[1,2,3-cd]indene-7-carboxylic acid]	0.365	0.033	0.0037	0.00026	58	75
Cc1c(Cl)c2c(Cl)c(C)c1-c1c(-c3ccc(F)cc3)sc3ncnc(c13)O[C@@H](C(=O)O)Cc1cc(ccc1OCc1ccnc(-c3ccc(OC[C@H]4COC(C)(C)O4)cc3)n1)OC[C@@H](CN1CCN(C)CC1)O2 [Example 1, (7R,16R)-19,23-dichloro-10-{[2-(4-{[(4S)-2,2-dimethyl-1,3-dioxolan-4-yl]methoxy}phenyl)pyrimidin-4-yl]methoxy}-1-(4-fluorophenyl)-20,22-dimethyl-16-[(4-methylpiperazin-1-yl)methyl]-7,8,15,16-tetrahydro-18,21-etheno-13,9-(metheno)-6,14,17-trioxa-2-thia-3,5-diazacyclononadeca[1,2,3-cd]indene-7-carboxylic acid]	0.582	0.042	0.00502	0.00031	133	95
Cc1c(Cl)c2c(Cl)c(C)c1-c1c(-c3ccc(F)cc3)sc3ncnc(c13)O[C@@H](C(=O)O)Cc1cc(ccc1OCc1ccnc(-c3ccc(OC[C@@H]4COCCO4)cc3)n1)OC[C@@H](CN1CCN(C)CC1)O2 [Example 7, (7R,16R)-19,23-dichloro-10-{[2-(4-{[(2S)-1,4-dioxan-2-yl]methoxy}phenyl)pyrimidin-4-yl]methoxy}-1-(4-fluorophenyl)-20,22-dimethyl-16-[(4-methylpiperazin-1-yl)methyl]-7,8,15,16-tetrahydro-18,21-etheno-13,9-(metheno)-6,14,17-trioxa-2-thia-3,5-diazacyclononadeca[1,2,3-cd]indene-7-carboxylic acid]	0.92	0.036	0.000406	0.000171	477	99
Cc1c(Cl)c2c(Cl)c(C)c1-c1c(-c3ccc(F)cc3)sc3ncnc(c13)O[C@@H](C(=O)O)Cc1cc(ccc1OCc1ccnc(N3CCC(F)(COC[C@@H]4COCCO4)CC3)n1)OC[C@@H](CN1CCN(C)CC1)O2 [Example 8, (7R,16R)-19,23-dichloro-10-({2-[4-({[(2S)-1,4-dioxan-2-yl]methoxy}methyl)-4-fluoropiperidin-1-yl]pyrimidin-4-yl}methoxy)-1-(4-fluorophenyl)-20,22-dimethyl-16-[(4-methylpiperazin-1-yl)methyl]-7,8,15,16-tetrahydro-18,21-etheno-13,9-(metheno)-6,14,17-trioxa-2-thia-3,5-diazacyclononadeca[1,2,3-cd]indene-7-carboxylic acid]	2.27	0.194	0.00176	0.00086	46	79
Cc1c(Cl)c2c(Cl)c(C)c1-c1c(C3=CCCC3)sc3ncnc(c13)O[C@@H](C(=O)O)Cc1cc(ccc1OCc1ccnc(C3=CC[C@@](F)(COC[C@H]4COCCO4)CC3)n1)OC[C@@H](CN1CCN(C)CC1)O2 [Example 48, (7R,16R)-19,23-dichloro-1-(cyclopent-1-en-1-yl)-10-({2-[(4R)-4-({[(2R)-1,4-dioxan-2-yl]methoxy}methyl)-4-fluorocyclohex-1-en-1-yl]pyrimidin-4-yl}methoxy)-20,22-dimethyl-16-[(4-methylpiperazin-1-yl)methyl]-7,8,15,16-tetrahydro-18,21-etheno-13,9-(metheno)-6,14,17-trioxa-2-thia-3,5-diazacyclononadeca[1,2,3-cd]indene-7-carboxylic acid]	0.648	0.026	0.000593	0.000641	–	–
Cc1c(Cl)c2c(Cl)c(C)c1-c1c(-c3ccc(F)cc3)sc3ncnc(c13)O[C@@H](C(=O)O)Cc1cc(ccc1OCc1ccnc([C@H]3CC[C@H](COC[C@@H]4COCCO4)CC3)n1)OC[C@@H](CN1CCN(C)CC1)O2 [Example 49, (7R,16R)-19,23-dichloro-10-({2-[(1S,4r)-4-({[(2R)-1,4-dioxan-2-yl]methoxy}methyl)cyclohexyl]pyrimidin-4-yl}methoxy)-1-(4-fluorophenyl)-20,22-dimethyl-16-[(4-methylpiperazin-1-yl)methyl]-7,8,15,16-tetrahydro-18,21-etheno-13,9-(metheno)-6,14,17-trioxa-2-thia-3,5-diazacyclononadeca[1,2,3-cd]indene-7-carboxylic acid]	0.128	< 0.01	0.000314	0.000172	–	–
Cc1c(Cl)c2c(Cl)c(C)c1-c1c(-c3ccc(F)cc3)sc3ncnc(c13)O[C@@H](C(=O)O)Cc1cc(ccc1OCc1ccnc([C@H]3CC[C@@H](COC[C@H]4COCCO4)CC3)n1)OC[C@@H](CN1CCN(C)CC1)O2 [Example 50, (7R,16R)-19,23-dichloro-10-({2-[(1S,4s)-4-({[(2S)-1,4-dioxan-2-yl]methoxy}methyl)cyclohexyl]pyrimidin-4-yl}methoxy)-1-(4-fluorophenyl)-20,22-dimethyl-16-[(4-methylpiperazin-1-yl)methyl]-7,8,15,16-tetrahydro-18,21-etheno-13,9-(metheno)-6,14,17-trioxa-2-thia-3,5-diazacyclononadeca[1,2,3-cd]indene-7-carboxylic acid]	0.249	0.022	0.000255	0.000249	–	–
Cc1c(Cl)c2c(Cl)c(C)c1-c1c(-c3ccc(F)cc3)sc3ncnc(c13)O[C@@H](C(=O)O)Cc1cc(ccc1OCc1ccnc([C@H]3CC[C@H](COC[C@H]4COCCO4)CC3)n1)OC[C@@H](CN1CCN(C)CC1)O2 [Example 51, (7R,16R)-19,23-dichloro-10-({2-[(1R,4r)-4-({[(2S)-1,4-dioxan-2-yl]methoxy}methyl)cyclohexyl]pyrimidin-4-yl}methoxy)-1-(4-fluorophenyl)-20,22-dimethyl-16-[(4-methylpiperazin-1-yl)methyl]-7,8,15,16-tetrahydro-18,21-etheno-13,9-(metheno)-6,14,17-trioxa-2-thia-3,5-diazacyclononadeca[1,2,3-cd]indene-7-carboxylic acid]	0.131	< 0.01	0.000299	0.000267	–	–
Cc1c(Cl)c2c(Cl)c(C)c1-c1c(C3CCC3)sc3ncnc(c13)O[C@@H](C(=O)O)Cc1cc(ccc1OCc1ccnc([C@H]3CC[C@H](OC[C@H]4COCCO4)CC3)n1)OC[C@@H](CN1CCN(C)CC1)O2 [Example 52, (7R,16R)-19,23-dichloro-1-cyclobutyl-10-({2-[(1R,4r)-4-{[(2R)-1,4-dioxan-2-yl]methoxy}cyclohexyl]pyrimidin-4-yl}methoxy)-20,22-dimethyl-16-[(4-methylpiperazin-1-yl)methyl]-7,8,15,16-tetrahydro-18,21-etheno-13,9-(metheno)-6,14,17-trioxa-2-thia-3,5-diazacyclononadeca[1,2,3-cd]indene-7-carboxylic acid]	0.72	< 0.01	0.00118	0.000448	–	–
COc1ccccc1-c1ccc(OC[C@@H]2COCCO2)c(COc2ccc3cc2C[C@H](C(=O)O)Oc2ncnc4sc(-c5ccc(F)cc5)c(c24)-c2c(C)c(Cl)c(c(Cl)c2C)O[C@H](CN2CCN(C)CC2)CO3)n1 [Example 53, (7R,16R)-19,23-dichloro-10-{[3-{[(2S)-1,4-dioxan-2-yl]methoxy}-6-(2-methoxyphenyl)pyridin-2-yl]methoxy}-1-(4-fluorophenyl)-20,22-dimethyl-16-[(4-methylpiperazin-1-yl)methyl]-7,8,15,16-tetrahydro-18,21-etheno-9,13-(metheno)-6,14,17-trioxa-2-thia-3,5-diazacyclononadeca[1,2,3-cd]indene-7-carboxylic acid]	114	13.7	> 1	0.311	–	–
